Measurements published in patent US9029414B2, “Triterpenoid compounds and methods of use thereof” (Biotechnology Research Corporation, priority 2008, dated 2015).

Tests used:
EP4 receptor = EP4 receptor (Homo sapiens, UniProt P35408); experiment: Radioligand competition binding assay, EP4; settings: EP4, target PGE2; compound at 10 μM in duplicate; read-out: % inhibition of control specific binding
Procedure: DA001 was further evaluated against 32 receptor binding assays. Radioligand competition assays were conducted whereby DA001 was tested at one concentration (10 uM) in duplicate. […] It could compete with the radioligand [^3H] PGE2 binding at the EP1 and EP4 receptors, and weakly competed with the EP2 and FP receptors.
To determine the targets of DA compounds, the compound was assessed in binding assays for the family of prostanoid receptors. Both compounds were tested at a single concentration (10 μM) in duplicate. DA001 and DA021 inhibit the ligand binding of prostaglandin E2 receptors EP1, EP2 and EP4 and moderately to prostaglandin (PGF) to its receptor (FP), but not prostaglandin I (PGI2), thromoboxane A and prostaglandin D2 to their receptors.

[1] = system: phosphorylated STAT3, STAT4, STAT6 in splenocytes of EAE mice; experiment: Western blot of phosphorylated STAT proteins in EAE splenocytes; format: cell-based; settings: exogenous 30 μM, MOG 25 μg/mL, splenocytes of vehicle-treated EAE mice
Procedure: On day 21, EAE mice were sacrificed by cervical dislocation and spleens were removed aseptically. The removed spleens were then cut with sterilized scissors and strained through […] mesh (BD Bioscience) with a plunger of 5 mL syringe (BD Bioscience) in 9 mL of RPMI 1640 (Invitrogen) with 100 U/mL penicillin and 100 μg/mL streptomycin (Sigma). The cell mixture was then added to 9 mL of Lympholyte (Cedarlane Laboratories) for gradient separation of splenocytes from red bloods cells by centrifugation at 1500 g for 20 min. After the centrifugation, the lympholyte layer containing splenocytes were carefully removed and washed with 10 mL of RPMI 1640 at 800 g for 10 min for three times. The isolated splenocytes were seeded onto different plate format and cultured with RPMI 1640 medium (Invitrogen) supplement with 10% heat inactivated fetal bovine serum (Invitrogen) and 100 U/mL penicillin and 100 μg/mL streptomycin at 37° C. CO2 incubator.
Splenocytes of EAE mice were cultured at the density of 1×10^7 cells in 6-well plates (Falcon) and treated with the absence or presence of the MOG peptide (25 μg/mL) (Hooke Laboratories), DA001, and DA021 (30 μM) for 24 h. After overnight incubation, the splenocytes were lysed with RIPA containing antipain dihydrochloride, trypsin inhibitor, leupeptin, aprotinin, sodium orthovanadate, benzamidine and phenyl methane sulphonyl fluoride. After centrifugation at 14000 rpm for 15 min, 4° C., protein concentrations were determined by Dc Protein Assay kit (Bio-Rad). 20 μg of each sample was subjected to 10% SDS-PAGE with 20 mA for 3 h. Immunoblot analysis was performed by transfer of proteins onto nitrocellulose membranes using a mini trans-blot apparatus (Bio-Rad). After 2 h blocking with milk, the membranes were incubated overnight at 4° C. with specific primary Abs (1:1000): anti-phospho-Stat 3 (Cell signaling), anti-phospho-Stat 4 (BD Bioscience), and anti-phospho-Stat 6 (Cell signaling). Anti-α-tubulin (Sigma) was used as a loading control. After washing, subsequent incubation with anti-rabbit or anti-mouse HRP-conjugated secondary antibody (1:3000) (Cell Signaling) for 1 h at room temperature was carried out. The signal was detected by ECL Western blot detection kit (GE Healthcare).
The efficacy of DA compounds in modulating the expression of pro-inflammation proteins was examined. Western blot analysis was performed on cultured splenocytes isolated from the spleen of EAE mice and the expression of signal transducers and activators of transcription (STAT) proteins was examined in response to exogenous treatments of MOG (25 μg/mL), DA001 (30 μM) and DA021 (30 μM). Exogenous addition of MOG [MOG (Ex)] to EAE splenocytes is shown to robustly increase the phosphorylation of STAT3, STAT4, and STAT6.
Western blot analysis was performed as described in the methodology.

EP1 receptor = target: T1, EP1 receptor (Homo sapiens, UniProt P34995); experiment: Cellular receptor functional assay (cAMP), EP1; format: cell-based; design: expressed in transfected cells; host or cells: CHO cells; settings: for Antagonist effect, cAMP measurement: in presence of PGE2
T1 sequence (P34995 1-402): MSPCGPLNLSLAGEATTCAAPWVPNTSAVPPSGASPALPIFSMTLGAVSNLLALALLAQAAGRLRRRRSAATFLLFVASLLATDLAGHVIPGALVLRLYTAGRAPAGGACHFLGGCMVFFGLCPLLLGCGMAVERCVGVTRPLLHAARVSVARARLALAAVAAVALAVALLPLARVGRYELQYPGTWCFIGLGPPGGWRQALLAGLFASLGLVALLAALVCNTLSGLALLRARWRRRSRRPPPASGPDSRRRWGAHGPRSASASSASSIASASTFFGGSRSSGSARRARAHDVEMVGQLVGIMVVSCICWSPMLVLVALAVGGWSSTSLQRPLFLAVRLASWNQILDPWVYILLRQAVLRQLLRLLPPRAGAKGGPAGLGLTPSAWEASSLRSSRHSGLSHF
Procedure: To determine whether the inhibitory effect of DA001 on the ligand binding to EP receptors results from agonist or antagonist activity, DA001 was evaluated at a single concentration (10 μM) on cellular-specific receptor functional assays. Upon ligand binding, the EP receptors are activated which leads to an increase in intracellular cyclic AMP.
DA001 (10 μM) was subjected to ligand binding assay with the human EP1 or EP4 receptor over-expressing CHO cells. Results are expressed as a percent of control specific agonist response [100-(measured specific response/control specific agonist response)×100] obtained in the presence of DA001.
DA021 inhibits PGE2 ligand binding to EP1, EP2 and EP4 receptors. To determine whether the inhibitory effect is due to agonist or antagonist activity, DA021 was evaluated and compared at 1 concentration (30 uM) in cellular assays assessing receptor function. Upon ligand binding, the EP receptors are activated which leads to an increase in intracellular cyclic AMP.

Sequence of EP4 receptor (P35408 whole entry): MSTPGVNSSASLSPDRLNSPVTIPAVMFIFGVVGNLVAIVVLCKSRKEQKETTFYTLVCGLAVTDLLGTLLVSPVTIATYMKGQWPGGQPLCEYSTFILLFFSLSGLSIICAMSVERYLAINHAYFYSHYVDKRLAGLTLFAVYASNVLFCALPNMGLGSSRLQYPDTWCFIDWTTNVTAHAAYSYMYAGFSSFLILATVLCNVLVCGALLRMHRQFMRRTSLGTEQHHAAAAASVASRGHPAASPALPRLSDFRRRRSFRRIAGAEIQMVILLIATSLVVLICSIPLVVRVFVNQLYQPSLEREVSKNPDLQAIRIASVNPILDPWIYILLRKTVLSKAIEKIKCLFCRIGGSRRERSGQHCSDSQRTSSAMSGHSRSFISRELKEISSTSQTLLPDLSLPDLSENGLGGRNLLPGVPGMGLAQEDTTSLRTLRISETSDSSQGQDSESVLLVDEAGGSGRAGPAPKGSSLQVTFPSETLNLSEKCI

| SMILES | inhibition at 10 µM (EP4 receptor) [%] | MOG-induced STAT3 phosphorylation [1] | MOG-induced STAT4 phosphorylation [1] | STAT6 phosphorylation [1] | Agonist effect, cAMP measurement (EP1 receptor; 30 uM) | Antagonist effect, cAMP measurement (EP1 receptor; 30 uM) | Antagonist effect, cAMP measurement (EP1 receptor; 10 μM) [%] | Agonist effect, cAMP measurement (EP1 receptor; 10 μM, percent of control specific agonist response) [%] |
| --- | --- | --- | --- | --- | --- | --- | --- | --- |
| C=C(C)[C@@H]1CC[C@]2(/C=N/O)CC[C@]3(C)C(CCC4[C@@]5(C)CCC(=O)[C@@](C)(CO)[C@@H]5CC[C@]43C)C12 (some centres unmarked) [DA021] | 36 | significantly decreased | significantly decreased | marked decrease | 9 | 87 |  |  |
| C=C(C)[C@@H]1CC[C@]2(C(=O)O)CC[C@]3(C)C(CC[C@@H]4[C@@]5(C)CC[C@H](O[C@@H]6OC[C@H](O)[C@H](O)[C@H]6O[C@@H]6O[C@@H](C)[C@H](O)[C@@H](O)[C@H]6O)[C@@](C)(CO)[C@@H]5CC[C@]43C)[C@@H]12 (stereo partly drawn) [DA001, 3-O-[α-L-rhamnopyranosyl-(1→2)-α-L-arabinopyranosyl]-3,23-dihydroxy-20(29)-lupen-28-oic acid] | 49 | significantly decreased | significantly decreased |  |  |  | 38 | 8.1 |
